Data published in patent publication US9833497B2, “Human originated EGF domain proteins and use of the same” (CHENGDU SOURCEBIO LIMITED-LIABILITY COMPANY, priority 2013, dated 2017).

Key:
Assay type in all cases: cell-based
Citrobacter diversus = test: MIC against Gram-negative bacteria: Citrobacter diversus; conditions: for MIC C. diversus: two-fold serial dilution
How it was run: (§1)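 MIC, the lowest recombinant protein concentration giving no bacterial growth, found by two-fold serial dilution of human EGF-domain proteins in triplicate. Inoculum 5×10^5 CFU/mL in LB from cultures at McFarland 0.5; plates incubated at 37° C, 175 rpm shaking.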

Serratia marcescens = test: MIC against Gram-negative bacteria: Serratia marcescens; conditions: for MIC S. marcescens: two-fold serial dilution
How it was run: as §1

Moraxella catarrhalis = test: MIC against Gram-negative bacteria: Moraxella catarrhalis; conditions: for MIC M. catarrhalis: two-fold serial dilution
How it was run: as §1

Klebsiella pneumonia = test: MIC against Gram-negative bacteria: Klebsiella pneumonia; conditions: for MIC K. pneumonia: two-fold serial dilution
How it was run: as §1

E. coli DH5α = test: Antibacterial activity: MIC and growth curve against E. coli DH5α in 96-well plate; conditions: minimal inhibitory concentration against E. coli DH5α; 96-well plate, 5×10^5 CFU/mL, 37° C., judged after 8 h
How it was run: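 Log-phase bacteria (OD600 ~0.5) resuspended in LB at 5×10^5 CFU/mL, exposed to recombinant protein at 50, 25, 12.5 μg/mL final in triplicate, 37 °C shaking at 175 rpm. OD600 read every 30 min; MIC is lowest concentration showing no growth.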

Enterobacter cloacae = test: MIC against Gram-negative bacteria: Enterobacter cloacae; conditions: for MIC E. cloacae: two-fold serial dilution
How it was run: as §1

Aeromonas hydrophila = test: MIC against Gram-negative bacteria: Aeromonas hydrophila; conditions: for MIC A. hydrophila: two-fold serial dilution
How it was run: as §1

Proteus mirabilis = test: MIC against Gram-negative bacteria: Proteus mirabilis; conditions: for MIC P. mirabilis: two-fold serial dilution
How it was run: as §1

E. coli BL21 = test: MIC against Gram-negative bacteria: E. coli BL21; conditions: for MIC E. coli BL21: two-fold serial dilution
How it was run: as §1

Proteus vulgaris = test: MIC against Gram-negative bacteria: Proteus vulgaris; conditions: for MIC P. vulgaris: two-fold serial dilution
How it was run: as §1

Pseudomonas aeruginosa = test: MIC against Gram-negative bacteria: Pseudomonas aeruginosa; conditions: for MIC P. aeruginosa: two-fold serial dilution
How it was run: as §1

[1] = 10 h cultivation at 37° C., 5×10^5 CFU/mL
[2] = Citrobacter diversus, 5×10^5 CFU/mL, 10 h cultivation at 37° C.
[3] = Serratia marcescens, 5×10^5 CFU/mL, 10 h cultivation at 37° C.
[4] = Moraxella catarrhalis, 5×10^5 CFU/mL, 10 h cultivation at 37° C.
[5] = Klebsiella pneumonia, 5×10^5 CFU/mL, 10 h cultivation at 37° C.
[6] = Enterobacter cloacae, 5×10^5 CFU/mL, 10 h cultivation at 37° C.
[7] = Aeromonas hydrophila, 5×10^5 CFU/mL, 10 h cultivation at 37° C.
[8] = Proteus mirabilis, 5×10^5 CFU/mL, 10 h cultivation at 37° C.
[9] = E. coli BL21, 5×10^5 CFU/mL, 10 h cultivation at 37° C.
[10] = Proteus vulgaris, 5×10^5 CFU/mL, 10 h cultivation at 37° C.
[11] = Pseudomonas aeruginosa, 5×10^5 CFU/mL, 10 h cultivation at 37° C.
[12] = 96-well plate, 5×10^5 CFU/mL, 37° C., 10 h

PRT976 (IGVRLEQLCQAGGQCVDEDSSHYCVCPEGRTGSHCE; listed as Homo sapiens)
MIC (Citrobacter diversus; C. diversus, 10 h cultivation at 37° C.): 25 µg/mL
MIC (Serratia marcescens; S. marcescens, 10 h cultivation at 37° C.): 25 µg/mL
MIC (Moraxella catarrhalis; M. catarrhalis, 10 h cultivation at 37° C.): 25 µg/mL
MIC (Klebsiella pneumonia; K. pneumonia, 10 h cultivation at 37° C.): 12.5 µg/mL
MIC (E. coli DH5α): 50 µg/mL
MIC (Enterobacter cloacae; E. cloacae, 10 h cultivation at 37° C.): 50 µg/mL
MIC (Aeromonas hydrophila; A. hydrophila, 10 h cultivation at 37° C.): 12.5 µg/mL
MIC (Proteus mirabilis; P. mirabilis, 10 h cultivation at 37° C.): 50 µg/mL
MIC (E. coli BL21; E. coli BL21, 10 h cultivation at 37° C.): 12.5 µg/mL
MIC (Proteus vulgaris; P. vulgaris, 10 h cultivation at 37° C.): 25 µg/mL
MIC (Pseudomonas aeruginosa; P. aeruginosa, 10 h cultivation at 37° C.): 50 µg/mL

PRT1092 (ILLGCTHQQCLNNGTCIPHFQDGQHGFSCLCPSGYTGSLCE; listed as Homo sapiens)
MIC C. diversus (Citrobacter diversus; [1]): 12.5 µg/mL
MIC S. marcescens (Serratia marcescens; [1]): 25 µg/mL
MIC M. catarrhalis (Moraxella catarrhalis; [1]): 25 µg/mL
MIC K. pneumonia (Klebsiella pneumonia; [1]): 12.5 µg/mL
MIC (E. coli DH5α): 25 µg/mL
MIC E. cloacae (Enterobacter cloacae; [1]): 25 µg/mL
MIC A. hydrophila (Aeromonas hydrophila; [1]): 12.5 µg/mL
MIC P. mirabilis (Proteus mirabilis; [1]): 50 µg/mL
MIC E. coli BL21 (E. coli BL21; [1]): 50 µg/mL
MIC P. vulgaris (Proteus vulgaris; [1]): 25 µg/mL
MIC P. aeruginosa (Pseudomonas aeruginosa; [1]): 25 µg/mL

PRT1166 (DTPEGVRYISSNVCGPHGKCKSQSGGKFTCDCNKGFTGTYCH; listed as Homo sapiens)
MIC C. diversus (Citrobacter diversus; [1]): 12.5 µg/mL
MIC S. marcescens (Serratia marcescens; [1]): 12.5 µg/mL
MIC M. catarrhalis (Moraxella catarrhalis; [1]): 50 µg/mL
MIC K. pneumonia (Klebsiella pneumonia; [1]): 50 µg/mL
MIC (E. coli DH5α): 50 µg/mL
MIC E. cloacae (Enterobacter cloacae; [1]): 25 µg/mL
MIC A. hydrophila (Aeromonas hydrophila; [1]): 25 µg/mL
MIC P. mirabilis (Proteus mirabilis; [1]): 12.5 µg/mL
MIC E. coli BL21 (E. coli BL21; [1]): 12.5 µg/mL
MIC P. vulgaris (Proteus vulgaris; [1]): 50 µg/mL
MIC P. aeruginosa (Pseudomonas aeruginosa; [1]): 25 µg/mL

PRT838 (GLQECSAYCGSHGTCASPLGPCRCEPGFLGRACD; listed as Homo sapiens)
MIC (μg/mL) C. diversus (Citrobacter diversus; C. diversus, 10 h cultivation at 37° C., 5×10^5 CFU/mL): 25 µg/mL
MIC (μg/mL) S. marcescens (Serratia marcescens; S. marcescens, 10 h cultivation at 37° C., 5×10^5 CFU/mL): 25 µg/mL
MIC (μg/mL) M. catarrhalis (Moraxella catarrhalis; M. catarrhalis, 10 h cultivation at 37° C., 5×10^5 CFU/mL): 12.5 µg/mL
MIC (μg/mL) K. pneumonia (Klebsiella pneumonia; K. pneumonia, 10 h cultivation at 37° C., 5×10^5 CFU/mL): 12.5 µg/mL
MIC (E. coli DH5α): 50 µg/mL
MIC (μg/mL) E. cloacae (Enterobacter cloacae; E. cloacae, 10 h cultivation at 37° C., 5×10^5 CFU/mL): 25 µg/mL
MIC (μg/mL) A. hydrophila (Aeromonas hydrophila; A. hydrophila, 10 h cultivation at 37° C., 5×10^5 CFU/mL): 50 µg/mL
MIC (μg/mL) P. mirabilis (Proteus mirabilis; P. mirabilis, 10 h cultivation at 37° C., 5×10^5 CFU/mL): 25 µg/mL
MIC (μg/mL) E. coli BL21 (E. coli BL21; E. coli BL21, 10 h cultivation at 37° C., 5×10^5 CFU/mL): 12.5 µg/mL
MIC (μg/mL) P. vulgaris (Proteus vulgaris; P. vulgaris, 10 h cultivation at 37° C., 5×10^5 CFU/mL): 12.5 µg/mL
MIC (μg/mL) P. aeruginosa (Pseudomonas aeruginosa; P. aeruginosa, 10 h cultivation at 37° C., 5×10^5 CFU/mL): 50 µg/mL

PRT1493 (QQAECPGGCRNGGFCNERRICECPDGFHGPHCE; listed as Homo sapiens)
MIC against C. diversus (Citrobacter diversus; [2]): 50 µg/mL
MIC against S. marcescens (Serratia marcescens; [3]): 50 µg/mL
MIC against M. catarrhalis (Moraxella catarrhalis; [4]): 25 µg/mL
MIC against K. pneumonia (Klebsiella pneumonia; [5]): 12.5 µg/mL
MIC (E. coli DH5α): 100 µg/mL
MIC against E. cloacae (Enterobacter cloacae; [6]): 12.5 µg/mL
MIC against A. hydrophila (Aeromonas hydrophila; [7]): 50 µg/mL
MIC against P. mirabilis (Proteus mirabilis; [8]): 50 µg/mL
MIC against E. coli BL21 (E. coli BL21; [9]): 25 µg/mL
MIC against P. vulgaris (Proteus vulgaris; [10]): 25 µg/mL
MIC against P. aeruginosa (Pseudomonas aeruginosa; [11]): 12.5 µg/mL

PRT522 (CVCNGHAEVCNINNPEKLFRCECQHHTCGETCDRCCTGYNQRRWRPAAWEQSHECEA; listed as Homo sapiens)
MIC against C. diversus (Citrobacter diversus; [12]): 25 µg/mL
MIC against S. marcescens (Serratia marcescens; [12]): 25 µg/mL
MIC against M. catarrhalis (Moraxella catarrhalis; [12]): 12.5 µg/mL
MIC against K. pneumonia (Klebsiella pneumonia; [12]): 12.5 µg/mL
MIC (E. coli DH5α): 25 µg/mL
MIC against E. cloacae (Enterobacter cloacae; [12]): 25 µg/mL
MIC against A. hydrophila (Aeromonas hydrophila; [12]): 50 µg/mL
MIC against P. mirabilis (Proteus mirabilis; [12]): 25 µg/mL
MIC against E. coli BL21 (E. coli BL21; [12]): 50 µg/mL
MIC against P. vulgaris (Proteus vulgaris; [12]): 50 µg/mL
MIC against P. aeruginosa (Pseudomonas aeruginosa; [12]): 25 µg/mL

PRT1354 (RDRQCPRDCSNRGLCVDGQCVCEDGFTGPDCA; listed as Homo sapiens)
MIC against C. diversus (Citrobacter diversus; [2]): 25 µg/mL
MIC against S. marcescens (Serratia marcescens; [3]): 25 µg/mL
MIC against M. catarrhalis (Moraxella catarrhalis; [4]): 50 µg/mL
MIC against K. pneumonia (Klebsiella pneumonia; [5]): 50 µg/mL
MIC (E. coli DH5α): 25 µg/mL
MIC against E. cloacae (Enterobacter cloacae; [6]): 25 µg/mL
MIC against A. hydrophila (Aeromonas hydrophila; [7]): 12.5 µg/mL
MIC against P. mirabilis (Proteus mirabilis; [8]): 25 µg/mL
MIC against E. coli BL21 (E. coli BL21; [9]): 12.5 µg/mL
MIC against P. vulgaris (Proteus vulgaris; [10]): 12.5 µg/mL
MIC against P. aeruginosa (Pseudomonas aeruginosa; [11]): 25 µg/mL
